In patent US20250326753A1, “DUAL CXCR4-BTK INHIBITORS” (X4 Pharmaceuticals, Inc., priority 2022, published 2025):

What was measured:
CXCR4 [1] = target: T1, CXCR4 (Homo sapiens, UniProt P61073); experiment: Chemokine (CXCL12-AF647) binding inhibition assay, Jurkat cells expressing CXCR4; conditions: CXCL12-AF647 25 ng/ml, read-out: IC50 CXCL-12 binding Jurkat
Protocol: Jurkat cells expressing CXCR4 were washed once with assay buffer (Hanks' balanced salt solution with 20 mM HEPES buffer and 0.2% bovine serum albumin, pH 7.4) and then incubated for 15 min at room temperature with the test compounds diluted in assay buffer at dose-dependent concentrations. Subsequently, CXCL12-AF647 (25 ng/ml) was added to the compound-incubated cells. The cells were incubated for 30 min at room temperature. Thereafter, the cells were washed twice in assay buffer, fixed in 1% paraformaldehyde in PBS, and analyzed on the FL4 channel of a FACSCalibur flow cytometer equipped with a 635-nm red diode laser (Becton Dickinson, San Jose, CA, USA).
The percentages of inhibition of CXCL12-AF647 binding were calculated according to the formula: [1−((MFI−MFINC)/(MFIPC−MFINC))]×100 where MFI is the mean fluorescence intensity of the cells incubated with CXCL 12-AF647 in the presence of the inhibitor, MFINC is the mean fluorescence intensity measured in the negative control (i.e., autofluorescence of unlabeled cells), and MFIPC is the mean fluorescence intensity of the positive control (i.e., cells exposed to CXCL12-AF647 alone).

[2] = target: T2, BTK (Bruton tyrosine kinase) (Homo sapiens, UniProt Q06187); experiment: BTK screening assay (33PanQinase Activity Assay, radiometric); format: biochemical; conditions: Inhibition of BTK, radiometric 33PanQinase Activity Assay, 3 μM ATP, 10 concentrations in singlicate, top 10 μM; read-out: 33PanQinase ® Radiometric IC50
T2 construct: GST or His (the text leaves open which); purchased Reaction Biology Europe GmbH Lot 012,11; host or cells: Sf9 insect cells or E. coli (not resolved)
Protocol: Inhibition of BTK activity was evaluated using a radiometric protein kinase assay (33PanQinase® Activity Assay) to measure the activity of BTK (Bruton tyrosine kinase).
Kinase assays were performed in 96-well ScintiPlates™ from Perkin Elmer (Boston, MA, USA) in a 50 μL reaction volume. The reaction cocktail was pipetted in four steps in the following order: 10 μL of non-radioactive ATP solution (in H2O); 25 μL of assay buffer/[γ-^33P]-ATP mixture; 5 μL of compound test sample in 10% DMSO; 10 μL of enzyme/substrate mixture.
BTK kinase was expressed in Sf9 insect cells or in E. coli as recombinant GST-fusion proteins or His-tagged proteins, either as full-length or enzymatically active fragments from human cDNAs, and purified by either GSH-affinity chromatography or immobilized metal. Purity was examined by SDS-PAGE/Coomassie staining, and identity confirmed by mass spectroscopy.
The reaction cocktails were incubated at 30° C. for 60 minutes. The reaction was stopped with 50 μL of 2% (v/v) H3PO4, plates were aspirated and washed two times with 200 μL 0.9% (w/v) NaCl. Incorporation of ^33Pi (counting of “cpm”) was determined with a microplate scintillation counter (Microbeta, Wallac).
The median value of the counts in wells containing assay buffer without enzyme, and without test compound was defined as “low control.” This value reflects unspecific binding of radioactivity to the plate in the absence of a protein kinase but in the presence of the substrate. The median value of the counts in wells containing assay buffer without test compound was defined as the “high control,” i.e. full activity in the absence of any inhibitor. The difference between high and low control was taken as 100% activity. Residual activity (in %) was calculated using the following formula: Res. Activity (%)=100×[(cpm of compound-low control)/(high control-low control)].
The fitting method used was a least-squares fit.

CXCR4 [3] = target: T1, CXCR4; experiment: Intracellular CXCL-12-induced calcium mobilization assay (FLIPR), U87.CXCR4 cells; format: cell-based; set-up: expressed in transfected cells; host or cells: U87 (U87.CXCR4); conditions: CXCL-12 25-50 ng/ml, read-out: IC50 CXCL-12 Ca2+ flux U87.CXCR4+
Protocol: Intracellular calcium mobilization induced by chemokines or chemokine-derived peptides were evaluated using a calcium responsive fluorescent probe and a FLIPR system. The CXCR-4 transfected U87 cell line (U87.CXCR4) cells were seeded in gelatine-coated black-wall 96-well plates at 20,000 cells per well and incubated for 12 hours. Cells were then loaded with the fluorescent calcium probe Fluo-2 acetoxymethyl at 4 μM final concentration in assay buffer (Hanks' balanced salt solution with 20 mM HEPES buffer and 0.2% bovine serum albumin, pH 7.4) for 45 min at 37° C. The intracellular calcium mobilization induced by the CXCL-12 (25-50 ng/ml) was then measured at 37° C. by monitoring the fluorescence as a function of time in all the wells simultaneously using a fluorometric imaging plate reader (FLIPR Tetra, Molecular Devices).

T2 sequence (Q06187 whole entry): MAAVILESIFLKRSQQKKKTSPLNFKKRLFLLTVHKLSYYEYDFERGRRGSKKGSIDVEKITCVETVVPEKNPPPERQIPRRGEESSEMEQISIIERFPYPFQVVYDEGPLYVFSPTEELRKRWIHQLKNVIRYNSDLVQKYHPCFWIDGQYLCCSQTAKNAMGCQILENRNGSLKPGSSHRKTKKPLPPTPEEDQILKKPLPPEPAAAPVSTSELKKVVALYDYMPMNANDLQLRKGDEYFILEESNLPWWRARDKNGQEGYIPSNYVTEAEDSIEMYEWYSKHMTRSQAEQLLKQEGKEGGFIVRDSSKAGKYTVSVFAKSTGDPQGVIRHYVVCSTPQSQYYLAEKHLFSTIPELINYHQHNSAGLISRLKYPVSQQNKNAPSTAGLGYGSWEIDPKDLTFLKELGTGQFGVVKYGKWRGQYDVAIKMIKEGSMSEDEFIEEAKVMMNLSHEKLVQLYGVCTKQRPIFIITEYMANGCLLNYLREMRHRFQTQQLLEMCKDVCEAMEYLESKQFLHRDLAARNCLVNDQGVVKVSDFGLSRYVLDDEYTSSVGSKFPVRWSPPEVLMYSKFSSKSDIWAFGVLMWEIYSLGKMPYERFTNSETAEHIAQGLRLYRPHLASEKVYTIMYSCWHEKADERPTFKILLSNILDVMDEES
T1 sequence (P61073 whole entry): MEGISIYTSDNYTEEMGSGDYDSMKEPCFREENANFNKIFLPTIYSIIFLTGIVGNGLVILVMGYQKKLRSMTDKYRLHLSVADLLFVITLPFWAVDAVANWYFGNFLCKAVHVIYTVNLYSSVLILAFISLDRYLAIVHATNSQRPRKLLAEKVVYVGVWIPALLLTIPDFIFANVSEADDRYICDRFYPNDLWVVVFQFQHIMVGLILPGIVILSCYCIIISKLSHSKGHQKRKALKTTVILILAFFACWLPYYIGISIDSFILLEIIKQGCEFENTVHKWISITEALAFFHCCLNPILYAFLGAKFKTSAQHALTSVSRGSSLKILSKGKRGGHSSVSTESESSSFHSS

Row | Compound | IC50 (CXCR4 [1]) | IC50 [2] | IC50 (CXCR4 [3])
1 | Cc1cccnc1[C@H]1CCC[C@@H](c2ncccc2C)N1CCCNC(=O)[C@@H]1CC[C@@H](Nc2ncnc3[nH]cc(C(=O)c4ccc(Oc5ccccc5)cc4Cl)c23)CO1 [Compound I-20] | 100 to 1000 nM | 1 to 100 nM | > 2500 nM
2 | Cc1cccnc1[C@H]1CC(COC(=O)[C@@H]2CC[C@@H](Nc3ncnc4[nH]cc(C(=O)c5ccc(Oc6ccccc6)cc5Cl)c34)CO2)C[C@@H](c2ncccc2C)N1CCCCN (stereo partly drawn) [Compound I-21] | 1 to 100 nM | 1 to 100 nM | 100 to 1000 nM
3 | Cc1cccnc1[C@H]1CC(C(=O)OC[C@@H]2CC[C@@H](Nc3ncnc4[nH]cc(C(=O)c5ccc(Oc6ccccc6)cc5Cl)c34)CO2)C[C@@H](c2ncccc2C)N1CCCCN (stereo partly drawn) [Compound I-22] | 1 to 100 nM | 1 to 100 nM | 100 to 1000 nM
4 | Cc1cc(-c2ncnc3[nH]c(S(=O)(=O)NCCN4[C@@H](c5ncccc5C)CCC[C@H]4c4ncccc4C)cc23)ccc1CNC(=O)c1ccc(C(C)(C)C)cc1 [Compound I-26] | > 2500 nM | 1000 to 2500 nM | > 2500 nM
5 | Cc1cc(-c2ncnc3[nH]c(S(=O)(=O)NCCCN4[C@@H](c5ncccc5C)CCC[C@H]4c4ncccc4C)cc23)ccc1CNC(=O)c1ccc(C(C)(C)C)cc1 [Compound I-27] | 100 to 1000 nM | 100 to 1000 nM | > 2500 nM
6 | Cc1cc(-c2ncnc3[nH]c(S(=O)(=O)NCCCCN4[C@@H](c5ncccc5C)CCC[C@H]4c4ncccc4C)cc23)ccc1CNC(=O)c1ccc(C(C)(C)C)cc1 [Compound I-28] | 100 to 1000 nM | 1000 to 2500 nM | > 2500 nM
7 | Cc1cccnc1[C@H]1CCC[C@@H](c2ncccc2C)N1CCCN1CCN(C(=O)c2ccc(-c3cc4c(-c5cccc(NC(=O)c6ccccc6)c5C)ncnc4[nH]3)cc2)CC1 [Compound I-30] | 1 to 100 nM | 100 to 1000 nM | 1 to 100 nM
8 | Cc1cccnc1[C@H]1CCC[C@@H](c2ncccc2C)N1CCCCN1CCN(C(=O)c2ccc(-c3cc4c(-c5cccc(NC(=O)c6ccccc6)c5C)ncnc4[nH]3)cc2)CC1 [Compound I-31] | 1 to 100 nM | 100 to 1000 nM | 1 to 100 nM
9 | Cc1cccnc1[C@H]1CCC[C@@H](c2ncccc2C)N1CCN1CCN(C(=O)c2ccc(-c3cc4c(-c5cccc(NC(=O)c6ccc(C(C)C)cc6)c5C)ncnc4[nH]3)cc2)CC1 [Compound I-32] | 1 to 100 nM | 1 to 100 nM | > 2500 nM
10 | Cc1cccnc1[C@H]1CCC[C@@H](c2ncccc2C)N1CCN1CCN(C(=O)c2ccc(-c3cc4c(-c5cccc(NC(=O)c6cccc(C(C)C)c6)c5C)ncnc4[nH]3)cc2)CC1 [Compound I-33] | 1 to 100 nM | 100 to 1000 nM | 100 to 1000 nM
11 | Cc1cccnc1[C@H]1CCC[C@@H](c2ncccc2C)N1CCN1CCN(C(=O)c2ccc(-c3cc4c(-c5cccc(NC(=O)c6ccc(C(F)(F)F)cc6)c5C)ncnc4[nH]3)cc2)CC1 [Compound I-34] | 1 to 100 nM | 100 to 1000 nM | 100 to 1000 nM
12 | Cc1cccnc1[C@H]1CCC[C@@H](c2ncccc2C)N1CCNC1CN(C(=O)c2ccc(-c3cc4c(-c5cccc(NC(=O)c6ccc(C(C)C)cc6)c5C)ncnc4[nH]3)cc2)C1 [Compound I-35] | 1 to 100 nM | 1 to 100 nM | 1 to 100 nM
13 | Cc1cccnc1[C@H]1CCC[C@@H](c2ncccc2C)N1CCNC1CN(C(=O)c2ccc(-c3cc4c(-c5cccc(NC(=O)c6cccc(C(C)C)c6)c5C)ncnc4[nH]3)cc2)C1 [Compound I-36] | 1 to 100 nM | 1000 to 2500 nM | 100 to 1000 nM
14 | Cc1cccnc1[C@H]1CCC[C@@H](c2ncccc2C)N1CCNC1CN(C(=O)c2ccc(-c3cc4c(-c5cccc(NC(=O)c6ccc(C(F)(F)F)cc6)c5C)ncnc4[nH]3)cc2)C1 [Compound I-37] | 1 to 100 nM | 100 to 1000 nM | 1 to 100 nM
15 | Cc1cc(-c2ncnc3[nH]c(C(=O)NCCCN4[C@@H](c5ncccc5C)CCC[C@H]4c4ncccc4C)cc23)ccc1CNC(=O)c1ccc(C(C)C)cc1 [Compound I-38] | 1 to 100 nM | 1 to 100 nM | 100 to 1000 nM
16 | Cc1cc(-c2ncnc3[nH]c(C(=O)NCCCN4[C@@H](c5ncccc5C)CCC[C@H]4c4ncccc4C)cc23)ccc1CNC(=O)c1cccc(C(C)C)c1 [Compound I-39] | 1 to 100 nM | 100 to 1000 nM | > 2500 nM
17 | Cc1cc(-c2ncnc3[nH]c(C(=O)NCCCN4[C@@H](c5ncccc5C)CCC[C@H]4c4ncccc4C)cc23)ccc1CNC(=O)c1ccc(C(F)(F)F)cc1 [Compound I-40] | 1 to 100 nM | 1 to 100 nM | > 2500 nM
18 | COC1CN(C(=O)NCc2ccc(-c3ccnc(Nc4cnn(CCN5[C@@H](c6ncccc6C)CCC[C@H]5c5ncccc5C)c4)n3)cc2C)C1 [Compound I-41] | 1 to 100 nM | 1 to 100 nM | > 2500 nM
19 | Cc1cc(-c2ccnc(Nc3cnn(CCN4[C@@H](c5ncccc5C)CCC[C@H]4c4ncccc4C)c3)n2)ccc1CNC(=O)N1CC(OC(C)(C)C)C1 [Compound I-42] | 1 to 100 nM | 1 to 100 nM | 100 to 1000 nM
20 | Cc1cc(-c2ccnc(Nc3cnn(CCN4[C@@H](c5ncccc5C)CCC[C@H]4c4ncccc4C)c3)n2)ccc1CNC(=O)N1CC(OC(F)(F)F)C1 [Compound I-43] | 1 to 100 nM | 1 to 100 nM | 100 to 1000 nM
21 | Cc1cc(-c2ncnc3[nH]c(C(=O)NCCCCN4[C@@H](c5ncccc5C)CCC[C@H]4c4ncccc4C)cc23)ccc1CNC(=O)c1ccc(C(C)C)cc1 [Compound I-44] | 1 to 100 nM | 1 to 100 nM | 100 to 1000 nM
22 | Cc1cc(-c2ncnc3[nH]c(C(=O)NCCCCN4[C@@H](c5ncccc5C)CCC[C@H]4c4ncccc4C)cc23)ccc1CNC(=O)c1cccc(C(C)C)c1 [Compound I-45] | 1 to 100 nM | 1 to 100 nM | 1000 to 2500 nM
23 | Cc1cc(-c2ncnc3[nH]c(C(=O)NCCCCN4[C@@H](c5ncccc5C)CCC[C@H]4c4ncccc4C)cc23)ccc1CNC(=O)c1ccc(C(F)(F)F)cc1 [Compound I-46] | 1 to 100 nM | 1 to 100 nM | 100 to 1000 nM
24 | Cc1cccnc1[C@H]1CC(Cn2cc(-c3ccc(Oc4ccccc4)cc3)c3c(N)ncnc32)C[C@@H](c2ncccc2C)N1CCCCN (stereo partly drawn) [Compound I-61] | > 2500 nM | > 2500 nM | > 2500 nM
25 | Cc1cccnc1[C@H]1CCC[C@@H](c2ncccc2C)N1CCn1cc(-c2ccc(Oc3ccccc3)cc2)c2c(N)ncnc21 [Compound I-63] | 1000 to 2500 nM | > 2500 nM | > 2500 nM
26 | Cc1cccnc1[C@H]1CCC[C@@H](c2ncccc2C)N1CCCn1cc(-c2ccc(Oc3ccccc3)cc2)c2c(N)ncnc21 [Compound I-64] | > 2500 nM | > 2500 nM | > 2500 nM
27 | Cc1cc(-c2ccnc(Nc3cnn(CCN4CCCCC4c4ncccc4C)c3)n2)ccc1CNC(=O)N1CC(OC(C)C)C1 (stereo not drawn) [Compound I-66] | > 2500 nM | 1 to 100 nM | > 2500 nM
